The values that follow come from publication PMC10797628.

The target in test [1] is T7.39N 5-HT1D receptor (Homo sapiens, UniProt P28221, T342N). Briefly: Radioligand binding, T7.39N 5-HT1D.
Protocol: (§4) 48 hours after transfection with the desired receptor construct, cells were isolated for saturation and competition binding assays as previously described.[47],[48],[57] Saturation and competition radioligand binding assays were conducted in an assay buffer consisting of 50 mM Tris HCl, 10 mM MgCl2, and 0.1 mM EDTA in filtered deionized water. […] Briefly, 5–10 μg of the receptor protein, as determined by a Thermo Fisher Pierce BCA protein assay kit, was incubated with 8 concentrations of radioligand in triplicate to determine total binding. […] Nonspecific binding was determined as above for saturation assays.
(§5) For radioligand binding data, nonspecific binding was subtracted from the total binding to get specific binding. Saturation binding data was fit to the “binding saturation-specific binding with hill slope” model. Competition binding data were fit to the “binding competition-one-site fit Ki” non-linear regression model and transformed to pKi values, reported as mean ± SD.
(§6) is 50 mM Tris HCl, 10 mM MgCl2 and 0.1 mM EDTA in filtered deionized water.
In test [2] the target is T1, human 5-HT1F receptor (Homo sapiens, UniProt P30939).
T1 construct: host or cells: HEK293T
T1 sequence (P30939 1-366): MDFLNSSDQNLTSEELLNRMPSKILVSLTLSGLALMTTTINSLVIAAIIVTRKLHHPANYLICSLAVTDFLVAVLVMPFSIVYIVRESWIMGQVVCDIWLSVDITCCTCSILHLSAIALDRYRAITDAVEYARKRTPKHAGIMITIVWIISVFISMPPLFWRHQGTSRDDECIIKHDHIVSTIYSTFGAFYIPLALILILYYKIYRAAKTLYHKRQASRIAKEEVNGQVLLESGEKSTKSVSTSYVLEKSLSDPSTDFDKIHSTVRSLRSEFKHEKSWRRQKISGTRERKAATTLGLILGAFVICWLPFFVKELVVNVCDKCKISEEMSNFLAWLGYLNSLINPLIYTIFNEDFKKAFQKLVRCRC
Kind of test: Radioligand binding (saturation and competition), WT 5-HT1F.

Test [3] has as its target T2, human 5-HT1B receptor (Homo sapiens, UniProt P28222).
T2 construct: host or cells: HEK293T
Briefly: Radioligand binding (saturation and competition), WT 5-HT1B. The note with it: for higher affinity at 5-HT1B over 5-HT1A receptors: affinity ratio.

Test [4] concerns the target Y5.38F 5-HT1D receptor (Homo sapiens, UniProt P28221, Y197F). Kind of test: Radioligand binding, Y5.38F 5-HT1D.
Protocol: as §4, §5, §6
In test [5] the target is T3, Y5.38F 5-HT1B receptor (Homo sapiens, UniProt P28222, Y208F).
T3 construct: host or cells: HEK293T
Briefly: Radioligand binding, Y5.38F 5-HT1B. The note with it: read-out: pKi 5-HT1B Receptor Y5.38F (converted).

Test [6] deals with T2, human 5-HT1B receptor. Briefly: cAMP accumulation (LANCE Ultra TR-FRET) in HEK293T cells, WT 5-HT1B. Type of test: cell-based. Conditions: for EC50: cAMP accumulation, HEKt cells, mean ± SD; for Emax: HEK-293T. The protocol:
(§1) Briefly, cells transfected with the desired receptor construct and compounds were incubated in the dark for 90 min at 37 °C. After incubation, cAMP detection reagents were added, and TR-FRET was used to quantify the cAMP produced.
(§2) The functional activity of compounds was determined by stimulating cells expressing the desired receptor with FSK and test compound in parallel with 12 known concentrations of cAMP. The known concentrations of cAMP were used to create a standard curve for each experiment that was used to interpolate the unknown values of cAMP in wells with test compounds. […] The EC50 and EMAX values were determined using the “dose response – log[agonist] vs response (three parameter)” nonlinear regression model in Prism and transformed to pEC50 values, reported as mean ± SD.
(§3) Summary of functional assay conditions at various 5-HT1 receptor point mutation constructs.

For test [7], the target named is T4, Y5.38F 5-HT1A receptor (Homo sapiens, UniProt P08908, Y195F).
T4 sequence (P08908 1-422 Y195F): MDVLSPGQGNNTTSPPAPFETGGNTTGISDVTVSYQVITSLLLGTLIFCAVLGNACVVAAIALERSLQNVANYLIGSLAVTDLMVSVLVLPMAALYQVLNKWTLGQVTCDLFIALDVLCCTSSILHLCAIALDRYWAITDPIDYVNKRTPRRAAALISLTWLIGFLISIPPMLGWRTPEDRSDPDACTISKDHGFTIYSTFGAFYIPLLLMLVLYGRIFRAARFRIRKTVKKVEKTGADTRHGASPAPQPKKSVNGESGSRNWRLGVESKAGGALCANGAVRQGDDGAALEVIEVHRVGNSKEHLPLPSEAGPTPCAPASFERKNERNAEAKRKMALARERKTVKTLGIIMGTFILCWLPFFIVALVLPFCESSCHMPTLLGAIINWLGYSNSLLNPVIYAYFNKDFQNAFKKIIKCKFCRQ
Kind of test: Radioligand binding, Y5.38F 5-HT1A.
Protocol: as §4, §5, §6

The target in test [8] is T5, Y5.38A 5-HT1A receptor (Homo sapiens, UniProt P08908, Y195A).
T5 sequence (P08908 1-422 Y195A): T4 sequence (P08908 1-422 Y195F) with F195A
Briefly: cAMP accumulation in HEK293T cells, Y5.38A 5-HT1A. The class given is cell-based. Details: mutated in house (Quikchange II) HTR01A0000; host or cells: HEK293T. The note with it: point-mutated receptor, 3 independent experiments, read-out: pEC50 5-HT1A Receptor Y5.38A (converted). The protocol: as §1, §2, §3
For orientation: Changes in cAMP serve as a functional read-out for many G protein-coupled receptors.

The target in test [9] is T7.39N 5-HT1B receptor (Homo sapiens, UniProt P28222, T355N). Kind of test: cAMP accumulation in HEK293T cells, T7.39N 5-HT1B. Conditions: point-mutated receptor, 3 independent experiments, read-out: pEC50 5-HT1B Receptor N7.39T (converted). The class given is cell-based. The arrangement: host or cells: HEK293T. The method, then: as §1, §2, §3
Setting [10] is: read-out: 5-HT1B EMAX (%), WT receptor, normalized to basal (0%) and 10 μM 5-CT (100%).

Where a chain is given by its changes, count along the chain named. Read-outs that look alike come from different tables or passages of the source.

T2 sequence (P28222 whole entry): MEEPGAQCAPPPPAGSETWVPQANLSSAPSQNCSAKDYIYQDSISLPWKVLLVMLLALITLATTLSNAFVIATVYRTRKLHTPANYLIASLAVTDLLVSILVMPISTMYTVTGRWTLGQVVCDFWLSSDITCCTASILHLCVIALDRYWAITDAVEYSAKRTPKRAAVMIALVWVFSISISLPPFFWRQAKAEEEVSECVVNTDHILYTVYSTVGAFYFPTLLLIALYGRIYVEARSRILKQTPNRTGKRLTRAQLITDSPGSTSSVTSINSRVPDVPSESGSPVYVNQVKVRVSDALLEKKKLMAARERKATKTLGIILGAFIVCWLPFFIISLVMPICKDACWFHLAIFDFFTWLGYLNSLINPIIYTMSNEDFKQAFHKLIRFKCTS
Y5.38F 5-HT1D receptor, sequence (P28221 whole entry Y197F): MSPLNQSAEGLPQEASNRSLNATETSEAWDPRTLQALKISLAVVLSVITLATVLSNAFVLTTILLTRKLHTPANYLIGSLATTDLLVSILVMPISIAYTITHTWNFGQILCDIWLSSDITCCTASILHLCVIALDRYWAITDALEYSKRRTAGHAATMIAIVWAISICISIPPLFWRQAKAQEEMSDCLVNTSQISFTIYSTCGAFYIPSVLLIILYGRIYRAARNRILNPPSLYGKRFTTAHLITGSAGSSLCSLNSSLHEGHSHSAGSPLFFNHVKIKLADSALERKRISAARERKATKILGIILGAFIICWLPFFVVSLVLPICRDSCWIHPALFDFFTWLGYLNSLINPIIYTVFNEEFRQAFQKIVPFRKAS
T7.39N 5-HT1D receptor, sequence (P28221 whole entry T342N): as the sequence (P28221 whole entry Y197F) above, with F197Y, T342N counted along it
T3 sequence (P28222 whole entry Y208F): as the sequence (P28222 whole entry) above, with Y208F counted along it
T7.39N 5-HT1B receptor, sequence (P28222 whole entry T355N): as the sequence (P28222 whole entry) above, with T355N counted along it

What is called Emax is the size of the effect at its maximum, as opposed to the concentration needed. For the molecule `CN(C)[C@H]1CCc2c(cccc2-c2ccccc2F)C1` [(S)-FPT], the Ki in test [1] was 10.7 nM; in test [2], > 10000 nM; in test [4] it was 1.29 nM; in test [5], 1.91 nM. Further, the “higher affinity at 5-HT1B over 5-HT1A receptors” value in [3] turned out to be 2 fold. Besides, the EC50 in [6] (5-HT1B pEC50, WT receptor) is 0.49 nM. In test [6] (setting [10]), the Emax is > 90%. Besides, the “5-HT1B EMAX (%)” value in [6] (WT receptor, normalized to basal (0%) and 10 μM 5-CT (100%)) is 100 ± 2%.

Consider `CN(C)[C@H]1CCc2c(cccc2-c2cccc3ccccc23)C1` [(S)-NAP], for which the Ki was 1.07 nM in [1]; 60.3 nM in test [7]; 5370 nM in [2]; 4.57 nM in test [3] (Affinity (pKi ± SD) 5-HT1B, WT receptor, [^3H]5-CT competition, mean ± SD); 0.661 nM in test [4]; 5.62 nM in test [5]. In addition, the “higher affinity at 5-HT1B over 5-HT1A receptors” value in [3] was 10 fold. The EC50 was 4680 nM in test [8]; 37.2 nM in test [9]; 34.7 nM in [6] (5-HT1B pEC50, WT receptor). Further, the Emax in test [6] (setting [10]) is 30 ± 4%. Also, the “higher functional potency at 5-HT1B over 5-HT1A receptors” value in test [6] (cAMP potency ratio) is reported as “about 10 fold”.

In the case of `Fc1ccccc1-c1cccc2c1CC[C@H](N1CCCC1)C2` [(S)-PFPT], the Ki in [1] is 4.17 nM; in test [7], 1.74 nM; in test [2] (WT receptor, [^3H]5-HT competition, mean ± SD, read-out: Affinity (pKi ± SD) 5-HT1F (converted)), > 10000 nM; in test [3] (read-out: Affinity (pKi ± SD) 5-HT1B (converted)), 12 nM; in [4] it was 41.7 nM; in test [5], 15.1 nM. Besides, the EC50 was 2.04 nM in [8]; 19.5 nM in test [9]; 56.2 nM in test [6] (WT receptor, read-out: 5-HT1B pEC50 (converted)). In test [6] (read-out: 5-HT1B EMAX (%)), the Emax was found to be 99 ± 2%.
